# Experimental data: patent US20020165128A1, “Compositions and methods for proteolytically inactivating infectious agents using lactoferrin and related molecules” (priority 1998, published 2002)
# Tests used:
# [1] = molecular target: lactoferrin extraction of the IgA1 protease preprotein (Homo sapiens, UniProt P02788); assay type: cell-based; details: 10 mM inhibitor
# [2] = molecular target: T1, lactoferrin-associated proteolysis of H. influenzae Hap (Homo sapiens, UniProt P02788); assay: Inhibition of lactoferrin-associated proteolysis of Hap by serine protease inhibitor; assay type: cell-based; details: 7.5 mM inhibitor in isopropanol, DB117/HapS243A
# T1 construct: Lactoferrin amino acids are numbered beginning with the first residue in the mature protein (lacking the signal peptide); purchased Agennix Corporation; host or cells: Aspergillus awamori
# T1 sequence (P02788 20-710): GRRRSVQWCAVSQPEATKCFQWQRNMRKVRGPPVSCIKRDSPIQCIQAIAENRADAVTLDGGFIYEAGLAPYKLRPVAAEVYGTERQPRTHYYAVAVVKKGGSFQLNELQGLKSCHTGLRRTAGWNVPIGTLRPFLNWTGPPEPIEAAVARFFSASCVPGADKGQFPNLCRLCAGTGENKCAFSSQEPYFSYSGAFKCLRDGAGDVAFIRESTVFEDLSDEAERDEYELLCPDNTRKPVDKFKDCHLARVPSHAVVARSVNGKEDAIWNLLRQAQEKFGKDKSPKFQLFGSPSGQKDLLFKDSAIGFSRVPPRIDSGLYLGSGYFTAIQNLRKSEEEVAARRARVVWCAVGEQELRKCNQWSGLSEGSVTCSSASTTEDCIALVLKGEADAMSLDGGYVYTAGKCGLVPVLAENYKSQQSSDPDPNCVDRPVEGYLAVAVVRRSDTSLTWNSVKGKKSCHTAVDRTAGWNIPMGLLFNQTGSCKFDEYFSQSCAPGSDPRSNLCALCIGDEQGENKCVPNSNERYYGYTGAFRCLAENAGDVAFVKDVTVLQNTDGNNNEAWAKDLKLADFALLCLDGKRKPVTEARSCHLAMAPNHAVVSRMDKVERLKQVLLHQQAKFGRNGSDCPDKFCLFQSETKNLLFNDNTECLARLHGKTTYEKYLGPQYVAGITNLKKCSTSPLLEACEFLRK
# Method: To determine whether lactoferrin was functioning as a serine protease, the ability of phenylmethylsulfonyl fluoride (PMSF), a broad inhibitor of serine proteases, to inhibit degradation of Hap was examined. DB117/HapS243A was incubated in PBS (Lane 1), PBS with 430 nM A. awamori recombinant lactoferrin (Lane 2), PBS with 430 nM recombinant lactoferrin and 7.5% isopropanol (Lane 3), or PBS with recombinant lactoferrin and 7.5 mM PMSF in isopropanol (Lane 4). Whole cell lysates were prepared and examined by Western blot analysis with antiserum Rab 730, which reacts with the Hap preprotein, HapS, and Hap. The arrowhead indicates the Hap preprotein, and the arrows indicate Hap degradation products.
# Sequence of lactoferrin extraction of the IgA1 protease preprotein (P02788 20-710): as above
structure (smiles),measurement,setting,value
"O=S(=O)(F)Cc1ccccc1 [PMSF, phenylmethylsulfonyl fluoride]",inhibition of lactoferrin extraction of IgA1 protease preprotein,[1],inhibited
same,inhibition of proteolysis of Hap produced by 430 nM recombinant lactoferrin,[2],significantly inhibited
